Patent EP0220873B1, “Fused bicyclic imides with psychotropic activity” (priority 1985, dated 1987)
Counter-ions that a name gives are not always drawn.

Assays:
[1] = target: T1, limbic D-2 dopamine receptor (Rattus norvegicus, UniProt P61169); assay: biochemical; type: binding, rats; conditions: for Ki: Table 1, 0.3 nM 3H-spiroperidol, rat limbic brain tissue, read-out: Limbic D-2 Binding (KinM); for inhibition at 1 µM: read-out: Limbic D-2 Binding, % inhibition at 1 µM
T1 construct: Limbic brain tissue (nucleus accumbens, septal area, olfactory tubercle) is dissected; from tissue; host or cells: rat limbic brain tissue (nucleus accumbens, septal area, olfactory tubercle) homogenate

[2] = system: avoidance responding; assay: conditioned avoidance (shelf-jump response) test; type: in vivo, Male CD rats; conditions: for Active at mg/kg: i.p.
Procedure: Another test designed to determine the potential antipsychotic activity of the compounds of the invention is the conditioned avoidance (shelf-jump response) test.
This test is carried out as follows: Male CD rats (Charles River) maintained at approximately 400-450 gm body weight are used. Previously trained rats are placed in plexiglass experimental chambers divided into two sections; a main chamber (10 1/2" x 6 3/4" x 11 7/8" high) and an elevated chamber or shelf (5 7/8" x 6 7/8" x 5 3/4"). A moveable wall, controlled by a motor, determines whether the rat has access to the shelf at any time during the experiment. The experimental chamber also contains a house light and sonalert. A steel grid floor in the main chamber is wired for presentation of electric shock. Each trial consists of a fifteen-second warning tone (conditioned stimulus), continuing for an additional fifteen seconds accompanied by electric shock, (unconditioned stimulus). A response (jumping onto the exposed shelf of the upper chamber) occurring during the initial fifteen-second warning tone is considered an avoidance response, while a response occurring during shock delivery is considered an escape response. Trials are presented on a fixed interval schedule of one minute. The session consists of thirty-six trials. Animals are run twice weekly with control sessions always preceding a drug run, and with at least one day intervening. Compounds are administered i.p. or p.o. at appropriate pre-treatment times to a minimum of five rats at each dose level over a range of doses.
The following experimental parameters are recorded by computer: (1) the number of avoidance responses, (2) the number of escape responses, and (3) the number of trials in which no response occurred.
(§1) Response counts are summed over all subjects at a given dose. […] This number is expressed as a percentage of the total trials. Control performance is arbitrarily assigned a value of 100% for avoidance and the dose calculated to produce a 50% block in avoidance responding (AB₅₀) is obtained from a dose-effect regression line fitted by the method of least squares. Potential antipsychotic compounds suppress avoidance responding and increase escape responding.

[3] = system: avoidance responding; assay: conditioned avoidance (discrete trial) test; type: in vivo, Male CD rats; conditions: for ED50: Rattus norvegicus
Procedure: The antipsychotic activity of the compounds of the invention is assessed via the conditioned avoidance (discrete trial) test. This test has excellent clinical correlation for antipsychotic activity.
The test is carried out as follows: Male CD rats (Charles River) maintained at approximately 400-450 gm body weight are used. Rats trained previously are placed in plexiglass experimental chambers equipped with a response lever, house light, and sonalert. A steel grid floor is wired for presentation of electric shock. Each trial consists of a fifteen-second warning tone (conditioned stimulus), continuing for an additional fifteen seconds accompanied by electric shock, (unconditioned stimulus). The rat can terminate a trial at any point by depression of the response lever. As response during the initial fifteen-second warning tone ends the trial before shock delivery and is considered avoidance response, while a response occurring during shock delivery is an escape response. Trials are presented on a variable interval schedule of two minutes. The session consists of sixty trials. Animals are run two to three times weekly with control sessions always preceding a drug run, and with at least one day intervening, compounds are administered i.p. or p.o. at appropriate pre-treatment times to a minimum of five to six rats at each dose level over a range of doses.
as §1

[4] = ip, standard compounds, dose producing 50% block in avoidance responding, read-out: AB50 (the source's name)

T1 sequence (P61169 whole entry): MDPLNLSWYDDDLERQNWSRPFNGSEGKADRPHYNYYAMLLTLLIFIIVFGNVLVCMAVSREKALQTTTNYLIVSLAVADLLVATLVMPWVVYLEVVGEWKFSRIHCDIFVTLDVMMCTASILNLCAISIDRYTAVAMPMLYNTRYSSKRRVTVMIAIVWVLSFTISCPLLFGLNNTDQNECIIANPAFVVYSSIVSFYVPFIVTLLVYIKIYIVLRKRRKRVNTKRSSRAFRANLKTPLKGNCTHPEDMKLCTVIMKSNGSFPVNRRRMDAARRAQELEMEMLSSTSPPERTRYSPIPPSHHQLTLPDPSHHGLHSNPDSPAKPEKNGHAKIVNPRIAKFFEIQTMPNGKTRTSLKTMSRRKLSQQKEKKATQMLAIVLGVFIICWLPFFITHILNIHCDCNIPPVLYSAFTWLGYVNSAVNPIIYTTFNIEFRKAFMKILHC

Row | Compound | Active at mg/kg [2] | other results
1 | O=C1C2C3CCCCC(CC3)C2C(=O)N1CCCCN1CCN(c2cncc(Cl)n2)CC1 (centres unmarked) [Example 14, hydrochloride, hemihydrate] | 40 (i.p.) mg/kg | Ki [1]: 440 nM
2 | O=C1C2C3C=CC(C3)C2C(=O)N1CCCCN1CCN(c2ccc(Cl)nn2)CC1 (centres unmarked) [Example 17, 2-[4-[4-(6-Chloro-3-pyridazinyl-1-piperazinyl]butyl]-3a,4,7,7a-tetrahydro-4,7-methano-1H-isoindole-1,3-(2H)-dione, hydrochloride, dihydrate] | 40 (i.p.) mg/kg | inhibition at 1 µM [1]: 19%
3 | Cl.Cl.O=C1C2C3CCCC(CC3)C2C(=O)N1CCCCN1CCN(c2ncccn2)CC1 (centres unmarked) [Example 29, 4,5,6,7,8,8a-Hexahydro-2-[4-[4-(2-pyrimidinyl)-1-piperazinyl]butyl]-4,8-ethanocyclohepta[c]pyrrole-1,3(2H,3aH)-dione, dihydrochloride] | 40 (i.p.) mg/kg | 
4 | Cl.O.O=C1C2C3C=CC(C4CC34)C2C(=O)N1CCCCN1CCN(c2nccnc2Cl)CC1 (centres unmarked) [Example 19, 2-[4-[4-(3-Chloro-2-pyrazinyl)-1-piperazinyl]butyl]hexahydro-4,6-ethenocycloprop[f]isoindole-1,3(2H,3aH)-dione, hydrochloride, hydrate] | 40 (i.p.) mg/kg | Ki [1]: 54 nM
5 | O=C(CCCN1CCC2(CC1)C(=O)NCN2c1ccccc1)c1ccc(F)cc1 [Spiperone, reference compound] |  | ED50 [3, 4]: 0.13 mg/kg
6 | Cl.O=C1C2C3CCC(C4CC43)C2C(=O)N1CCCCN1CCN(c2cncc(Cl)n2)CC1 (centres unmarked) [Example 25, 2-[4-[4-(6-Chloro-2-pyrazinyl)-1-piperazinyl]butyl]hexahydro-4,6-ethanocycloprop[f]isoindole-1,3(2H,3aH)-dione, hydrochloride] | 40 (i.p.) mg/kg | inhibition at 1 µM [1]: 49%
7 | O=C1C2C3C=CC(C4CC34)C2C(=O)N1CCCCN1CCN(c2ncccn2)CC1 (centres unmarked) [Example 2, 4,4a,5,5a,6,6a-Hexahydro-2-[4-[4-(2-pyrimidinyl)-1-piperazinyl]butyl]-4,6-ethenocycloprop[f]isoindole-1,3-(2H,3aH)-dione,dihydrochloride, hydrate] | 40 (i.p.) mg/kg | 
8 | Cl.O=C1C2C3CCC(C4CC43)C2C(=O)N1CCCCN1CCN(c2nccnc2Cl)CC1 (centres unmarked) [Example 26, 2-[4-[4-(3-Chloro-2-pyrazinyl)-1-piperazinyl]butyl]hexahydro-4,6-ethanocycloprop[f]isoindole-1,3(2H,3aH)-dione, hydrochloride] | 40 (i.p.) mg/kg | inhibition at 1 µM [1]: 75%
9 | Cl.O.O=C1C2C3C=CC(CCC3)C2C(=O)N1CCCCN1CCN(c2cncc(Cl)n2)CC1 (centres unmarked) [Example 22, 2-[4-[4-(6-Chloro-2-pyrazinyl)-1-piperazinyl]butyl]-4,5,6,7,8,8a-hexahydro-4,8-ethenocyclohepta[c]pyrrole-1,3(2H,3aH)-dione, hydrochloride, hydrate] | 40 (i.p.) mg/kg | inhibition at 1 µM [1]: 43%; ED50 ([3]; po, read-out: Active at mg/kg (AB50 value)): 68.4 mg/kg
10 | O=C1C2C3C=CC(C4CCC34)C2C(=O)N1CCCCN1CCN(c2cncc(Cl)n2)CC1 (centres unmarked) [Example 15, 2-[4-[4-(6-Chloro-2-pyrazinyl)-1-piperazinyl]butyl]-octahydro-4,7-etheno-1H-cyclobut[f]isoindol-1,3-(2H)-dione, hydrochloride] | 40 (i.p.) mg/kg | Ki [1]: 413 nM
11 | CSc1ccc2c(c1)N(CCC1CCCCN1C)c1ccccc1S2 (centres unmarked) [Thioridazine, reference compound] |  | ED50 [3, 4]: 8.61 mg/kg
12 | O=C1C2C3C=CC(C4C=CC43)C2C(=O)N1CCCCN1CCN(c2ccc(Cl)nn2)CC1 (centres unmarked) [Example 11, 3a,4,4a,6a,7,7a-Hexahydro-2-[4-[4-(6-chloro-3-pyridazinyl)-1-piperazinyl]butyl]4,7-etheno-1H--cyclobut[f]isoindole-1,3(2H)-dione, hydrochloride, hydrate] | 40 (i.p.) mg/kg | 
13 | O=C1CC2(CCCC2)CC(=O)N1CCCCN1CCN(c2ncccn2)CC1 [Buspirone, 8-[4-[4-(2-pyrimidinyl)-1-piperazinyl]butyl]-8-azaspiro[4.5]decane-7,9-dione, reference compound] |  | ED50 ([2]; Rattus norvegicus, ip, standard compounds, read-out: AB50 (the source's name)): 9.94 mg/kg
14 | O=C1C2C3C=CC(C4CCC34)C2C(=O)N1CCCCN1CCN(c2nccnc2Cl)CC1 (centres unmarked) [Example 10, 2-[4-[4-(3-Chloro-2-pyrazinyl)-1-piperazinyl]butyl] octahydro-4,7-etheno-1H-cyclobut[f]isoindole-1,3(2H)--dione, dihydrochloride, hydrate] | 40 (i.p.) mg/kg | 
15 | Cl.O.O=C1C2C3C=CC(CCCC3)C2C(=O)N1CCCCN1CCN(c2nccnc2Cl)CC1 (centres unmarked) [Example 20, 2-[4-[4-(3-Chloro-2-pyrazinyl)-1-piperazinyl]butyl]octahydro-4,9-etheno-1H-cycloocta[c]pyrrole-1,3(2H)-dione, hydrochloride, hydrate] | 40 (i.p.) mg/kg | inhibition at 1 µM [1]: 78%
16 | O=C1C2C3C=CC(C3)C2C(=O)N1CCCCN1CCN(c2nccnc2Cl)CC1 (centres unmarked) [Example 18, 2-[4-[4-(3-Chloro-2-pyrazinyl)-1-piperazinyl]butyl]-3a,4,7,7a-tetrahydro-4,7-methano-1H-isoindole-1,3-(2H)-dione, hydrochloride, 2.5 hydrate] | 40 (i.p.) mg/kg | inhibition at 1 µM [1]: 48%; ED50 ([3]; po, footnote 1 = AB50 value, read-out: Active at mg/kg (AB50 value)): 40 mg/kg
17 | O=C1C2C3CCC(C4CCC43)C2C(=O)N1CCCCN1CCN(c2cncc(Cl)n2)CC1 (centres unmarked) [Example 5, 2-[4-[4-(6-Chloro-2-pyrazinyl-1-piperazinyl]butyl]octahydroo-4,7-ethano-1H-cyclobut[f]isoindole-1,3-(2H)-dione, hydrochloride, hemihydrate] | 40 (i.p.) mg/kg | 
18 | O=C(CCCN1CCC(O)(c2ccc(Cl)cc2)CC1)c1ccc(F)cc1 [Haloperidol, reference compound] |  | ED50 [3, 4]: 0.18 mg/kg
19 | O=C1C2C3C=CC(C4C=CC43)C2C(=O)N1CCCCN1CCN(c2cncc(Cl)n2)CC1 (centres unmarked) [Example 4, 3a,4,4a,6a,7,7a-Hexahydro-2-[4-[4-(6-chloro-2-pyrazinyl)-1-piperazinyl]butyl]-4,7-etheno-1H-cyclobut[f]isoindole-1,3(2H)-dione, dihydrochloride, sesquihydrate] | 40 (i.p.) mg/kg | 
20 | 2-[4-[4-(2-Pyrimidinyl)-1-piperazinyl]butyl]octahydro-4,7ethano-1H-cyclobut[f]isoindole-1,3-(2H)-dione, dihydrochloride, sesquihydrate [Example 6] | 40 (i.p.) mg/kg | Active at mg/kg ([3]; p.o., active dose, no AB50): 40 (p.o.) mg/kg
21 | O=C1C2C3C=CC(C4C=CC43)C2C(=O)N1CCCCN1CCN(c2nccnc2Cl)CC1 (centres unmarked) [Example 12, 3a,4,4a,6a,7,7a-Hexahydro-2-[4-[4-(3-chloro-2-pyrazinyl-1-piperazinyl]butyl]4,7-etheno-1H-cyclobut[f]isoindole-1,3(2H)-dione, hydrochloride, dihydrate] | 40 (i.p.) mg/kg | 
22 | O=C1C2C3C=CC(C4CC34)C2C(=O)N1CCCCN1CCN(c2ccc(Cl)nn2)CC1 (centres unmarked) [Example 9, 2-[4-[4-(6-Chloro-3-pyridazinyl)-1-piperazinyl]butyl]hexahydro-4,6-ethenocycloprop[f]isoindole-1,3-(2H,3H)-dione, hydrochloride] | 40 (i.p.) mg/kg | 
23 | Cl.Cl.O.O=C1C2C3C=CC(C4C=CC43)C2C(=O)N1CCCCN1CCN(c2ccc(C(F)(F)F)cn2)CC1 (centres unmarked) [Example 28, 3a,4,4a,6a,7,7a-Hexahydro-2-[4-[4-(5-trifluoromethyl-2-pyridinyl)-1-piperazinyl]-butyl]-4,7-etheno-1H-cyclobut[f]isoindole-1,3(2H)-dione, dihydrochloride, hydrate] | 40 (i.p.) mg/kg | 
